In patent US9169260B2 (MERCK SHARP & DOHME CORP., priority 2011, dated 2015):

Target: GST tagged IRAK-4 (Homo sapiens (Human), UniProt Q9NWZ3)
Assay: IRAK-4 Kinase Assay (IMAP fluorescence polarization)
Assay type: biochemical
Settings: 100 μM ATP, 30 minutes at 25° C.
In short: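 Activity was read by IMAP fluorescence polarization, where phosphopeptide binding to M(III) nanoparticles raises FP. The 30-minute, 25° C reaction used 100 μM ATP, 100 nM RP7030 substrate and 0.5 nM GST-IRAK-4 in pH 7.2 Tris buffer with MgCl2, DTT and Tween 20.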

Chain of GST tagged IRAK-4 (Q9NWZ3 whole entry): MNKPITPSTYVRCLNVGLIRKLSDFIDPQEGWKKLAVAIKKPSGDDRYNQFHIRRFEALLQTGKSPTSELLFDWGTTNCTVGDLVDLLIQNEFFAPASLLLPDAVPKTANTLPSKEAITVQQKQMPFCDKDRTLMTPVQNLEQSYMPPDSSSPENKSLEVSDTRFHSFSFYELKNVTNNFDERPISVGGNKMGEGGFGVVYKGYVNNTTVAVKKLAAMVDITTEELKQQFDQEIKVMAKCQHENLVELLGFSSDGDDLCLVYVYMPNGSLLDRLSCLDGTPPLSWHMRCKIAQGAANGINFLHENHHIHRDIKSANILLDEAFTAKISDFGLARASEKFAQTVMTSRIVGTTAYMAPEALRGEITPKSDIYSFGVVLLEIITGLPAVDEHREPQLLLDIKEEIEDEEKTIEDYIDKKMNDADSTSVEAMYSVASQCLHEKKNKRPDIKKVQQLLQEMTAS

Compound	IC50 (μM) [µM]	IC50 [µM]
Cc1ccc(-n2nc(C3CCN(C4CN(C(=O)OCCF)C4)CC3)cc2NC(=O)c2cnn3cccnc23)cc1 [Example 241, 2-fluoroethyl 3-(4-{1-(4-methylphenyl)-5-[(pyrazolo[1,5-a]pyrimidin-3-ylcarbonyl)amino]-1H-pyrazol-3-yl}piperidin-1-yl)azetidine-1-carboxylate]	< 1	
Cc1ccc(-n2nc(C3CCN(S(=O)(=O)c4cccc5cccnc45)CC3)cc2NC(=O)c2cnn3cccnc23)cc1 [Example 396, N-{1-(4-methylphenyl)-3-[1-(quinolin-8-ylsulfonyl)piperidin-4-yl]-1H-pyrazol-5-yl}pyrazolo[1,5-a]pyrimidine-3-carboxamide]	< 1	
Cc1ccc(-n2nc(C3CCC(O)CC3)cc2NC(=O)c2cnn3cccnc23)cc1 (stereo not shown) [Example 6, N-(3-(4-hydroxycyclohexyl)-1-(p-tolyl)-1H-pyrazol-5-yl)pyrazolo[1,5-a]pyrimidine-3-carboxamide]	< 1	
Cc1ccc(-n2nc(C3CCNC3)cc2NC(=O)c2cnn3cccnc23)cc1 (stereo not shown) [Example 80, N-(3-(pyrrolidin-3-yl)-1-(p-tolyl)-1H-pyrazol-5-yl)pyrazolo[1,5-a]pyrimidine-3-carboxamide]	< 1	
Cc1ccc(-n2nc(C3CN(Cc4cocn4)C3)cc2NC(=O)c2cnn3cccnc23)cc1 [Example 318, N-{1-(4-methylphenyl)-3-[1-(1,3-oxazol-4-ylmethyl)azetidin-3-yl]-1H-pyrazol-5-yl}pyrazolo[1,5-a]pyrimidine-3-carboxamide]	< 1	
COC(=O)N1CCC(c2cc(NC(=O)c3cnn4cccnc34)n(-c3ccc(OC)cc3)n2)CC1 [Example 32, methyl 4-(1-(4-methoxyphenyl)-5-(pyrazolo[1,5-a]pyrimidine-3-carboxamido)-1H-pyrazol-3-yl)piperidine-1-carboxylate]	< 1	
O=C(Nc1cc(C2CCNCC2)nn1-c1ccc(Br)cc1F)c1cnn2cccnc12 [Example 70, N-(1-(4-bromo-2-fluorophenyl)-3-(piperidin-4-yl)-1H-pyrazol-5-yl)pyrazolo[1,5-a]pyrimidine-3-carboxamide]	< 1	
Cc1ccc(-n2nc(C3CCN(S(=O)(=O)c4ccc(C(F)(F)F)cc4)CC3)cc2NC(=O)c2cnn3cccnc23)cc1 [Example 381, N-[1-(4-methylphenyl)-3-(1-{[4-(trifluoromethyl)phenyl]sulfonyl}piperidin-4-yl)-1H-pyrazol-5-yl]pyrazolo[1,5-a]pyrimidine-3-carboxamide]	> 1	
Cc1ccc(-n2nc(C3CCN(S(=O)(=O)c4ccccc4C#N)CC3)cc2NC(=O)c2cnn3cccnc23)cc1 [Example 362, N-[3-{1-[(2-cyanophenyl)sulfonyl]piperidin-4-yl}-1-(4-methylphenyl)-1H-pyrazol-5-yl]pyrazolo[1,5-a]pyrimidine-3-carboxamide]	< 1	
Cc1ccc(-n2nc(C3CCN(C4CCN(C)CC4)CC3)cc2NC(=O)c2cnn3cccnc23)nc1 [Example 275, N-[3-(1′-methyl-1,4′-bipiperidin-4-yl)-1-(5-methylpyridin-2-yl)-1H-pyrazol-5-yl]pyrazolo[1,5-a]pyrimidine-3-carboxamide]		< 0.1
Cc1ccc(-n2nc(C3CCNCC3)cc2NC(=O)c2cnn3cccnc23)cc1 [Example 7, N-(3-(piperidin-4-yl)-1-(p-tolyl)-1H-pyrazol-5-yl)pyrazolo[1,5-a]pyrimidine-3-carboxamide]		< 0.1
Cc1ccc(-n2nc(C3=CCN(C)CC3)cc2NC(=O)c2cnn3cccnc23)cc1 [Example 140, N-(3-(1-methyl-1,2,3,6-tetrahydropyridin-4-yl)-1-(p-tolyl)-1H-pyrazol-5-yl)pyrazolo[1,5-a]pyrimidine-3-carboxamide]		< 0.1
Cc1ccc(-n2nc(C3CCN(C4CN(S(=O)(=O)CF)C4)CC3)cc2NC(=O)c2cnn3cccnc23)cc1 [Example 247, N-[3-(1-{1-[(fluoromethyl)sulfonyl]azetidin-3-yl]piperidin-4-yl)-1-(4-methylphenyl)-1H-pyrazol-5-yl}pyrazolo[1,5-a]pyrimidine-3-carboxamide]	< 1	
Cc1ccc(-n2nc(C3CCN(S(=O)(=O)c4ccc(C#N)cc4)CC3)cc2NC(=O)c2cnn3cccnc23)cc1 [Example 380, N-[3-{1-[(4-cyanophenyl)sulfonyl]piperidin-4-yl}-1-(4-methylphenyl)-1H-pyrazol-5-yl]pyrazolo[1,5-a]pyrimidine-3-carboxamide]	< 1	
Cc1ccc(-n2nc(C3CCNCC3)cc2NC(=O)c2cnn3cccnc23)cn1 [Example 167, N-(1-(6-methylpyridin-3-yl)-3-(piperidin-4-yl)-1H-pyrazol-5-yl)pyrazolo[1,5-a]pyrimidine-3-carboxamide]	> 1	
Cc1ccc(-n2nc(C3CCN(S(=O)(=O)C(C)C)CC3)cc2NC(=O)c2cnn3cccnc23)cc1 [Example 368, N-[3-{1-[(1-methylethyl)sulfonyl]piperidin-4-yl}-1-(4-methylphenyl)-1H-pyrazol-5-yl]pyrazolo[1,5-a]pyrimidine-3-carboxamide]		< 0.1

Compound	IC50 (μM) [µM]	IC50 [µM]
Cc1ccc(-n2nc(-c3ccnc(N)c3)cc2NC(=O)c2cnn3cccnc23)cc1 [Example 355, N-[3-(2-aminopyridin-4-yl)-1-(4-methylphenyl)-1H-pyrazol-5-yl]pyrazolo[1,5-a]pyrimidine-3-carboxamide]		< 0.1
Cc1ccc(-n2nc(C3CCC(N)CC3)cc2NC(=O)c2cnn3cccnc23)nc1 (stereo not shown) [Example 185, N-(3-(4-aminocyclohexyl)-1-(5-methylpyridin-2-yl)-1H-pyrazol-5-yl)pyrazolo[1,5-a]pyrimidine-3-carboxamide]		< 0.1
Cc1ccc(-n2nc(C3CCN(C(C)C)CC3)cc2NC(=O)c2cnn3cccnc23)nc1 [Example 270, N-{3-[1-(1-methylethyl)piperidin-4-yl]-1-(5-methylpyridin-2-yl)-1H-pyrazol-5-yl}pyrazolo[1,5-a]pyrimidine-3-carboxamide]		< 0.1
Cc1ccc(-n2nc(C3CCN(S(=O)(=O)C4CCCC4)CC3)cc2NC(=O)c2cnn3cccnc23)cc1 [Example 25, N-(3-(1-(cyclopentylsulfonyl)piperidin-4-yl)-1-(p-tolyl)-1H-pyrazol-5-yl)pyrazolo[1,5-a]pyrimidine-3-carboxamide]	< 1	
Cc1ccc(-n2nc(C3CCN(C4CN(C(=O)NC(C)(C)C)C4)CC3)cc2NC(=O)c2cnn3cccnc23)cc1 [Example 236, N-[3-{1-[1-(tert-butylcarbamoyl)azetidin-3-yl]piperidin-4-yl]-1-(4-methylphenyl)-1H-pyrazol-5-yl}pyrazolo[1,5-a]pyrimidine-3-carboxamide]	< 1	
Cc1ccc(-n2nc(-c3ccc(S(=O)(=O)N4CCN(C)CC4)cc3)cc2NC(=O)c2cnn3cccnc23)nc1 [Example 178, N-(3-(4-((4-methylpiperazin-1-yl)sulfonyl)phenyl)-1-(5-methylpyridin-2-yl)-1H-pyrazol-5-yl)pyrazolo[1,5-a]pyrimidine-3-carboxamide]		< 0.1
Cc1ccc(-n2nc(C3CCCN(Cc4nccs4)C3)cc2NC(=O)c2cnn3cccnc23)cc1 (stereo not shown) [Example 298, N-{1-(4-methylphenyl)-3-[1-(1,3-thiazol-2-ylmethyl)piperidin-3-yl]-1H-pyrazol-5-yl}pyrazolo[1,5-a]pyrimidine-3-carboxamide]	< 1	
CCN(CC)S(=O)(=O)c1ccc(-c2cc(NC(=O)c3cnn4cccnc34)n(-c3ccc(C)cc3)n2)c(C)c1 [Example 340, N-{3-[4-(diethylsulfamoyl)-2-methylphenyl]-1-(4-methylphenyl)-1H-pyrazol-5-yl}pyrazolo[1,5-a]pyrimidine-3-carboxamide]	< 1	
Cc1ccc(-n2nc(C3CN(Cc4cc(C)on4)C3)cc2NC(=O)c2cnn3cccnc23)cc1 [Example 311, N-[3-{1-[(5-methylisoxazol-3-yl)methyl]azetidin-3-yl]-1-(4-methylphenyl)-1H-pyrazol-5-yl}pyrazolo[1,5-a]pyrimidine-3-carboxamide]	< 1	
CCS(=O)(=O)c1ccc(-c2cc(NC(=O)c3cnn4cccnc34)n(-c3ccc(C)cc3)n2)cc1 [Example 352, N-{3-[4-(ethylsulfonyl)phenyl]-1-(4-methylphenyl)-1H-pyrazol-5-yl}pyrazolo[1,5-a]pyrimidine-3-carboxamide]		< 0.1
Cc1ccc(-n2nc(C3CCN(Cc4ccn[nH]4)CC3)cc2NC(=O)c2cnn3cccnc23)cc1 [Example 230, N-{1-(4-methylphenyl)-3-[1-(1H-pyrazol-5-ylmethyl)piperidin-4-yl]-1H-pyrazol-5-yl}pyrazolo[1,5-a]pyrimidine-3-carboxamide]		< 0.1
COc1ccc(-n2nc(C3CCN(C(C)C)CC3)cc2NC(=O)c2cnn3cccnc23)c(F)c1 [Example 62, N-(1-(2-fluoro-4-methoxyphenyl)-3-(1-isopropylpiperidin-4-yl)-1H-pyrazol-5-yl)pyrazolo[1,5-a]pyrimidine-3-carboxamide]		< 0.1
COc1ccc(S(=O)(=O)N2CCC(c3cc(NC(=O)c4cnn5cccnc45)n(-c4ccc(C)cc4)n3)CC2)cc1 [Example 367, N-[3-{1-[(4-methoxyphenyl)sulfonyl]piperidin-4-yl}-1-(4-methylphenyl)-1H-pyrazol-5-yl]pyrazolo[1,5-a]pyrimidine-3-carboxamide]	< 1	
O=C(Nc1cc(C2CCN(C3CCC3)CC2)nn1-c1ccc(C2CC2)cc1F)c1cnn2cccnc12 [Example 75, N-(3-(1-cyclobutylpiperidin-4-yl)-1-(4-cyclopropyl-2-fluorophenyl)-1H-pyrazol-5-yl)pyrazolo[1,5-a]pyrimidine-3-carboxamide]		< 0.1
Cc1ccc(-n2nc(C3CCN(C4CCCCC4)CC3)cc2NC(=O)c2cnn3cccnc23)cc1 [Example 204, N-[3-(1-cyclohexylpiperidin-4-yl)-1-(4-methylphenyl)-1H-pyrazol-5-yl]pyrazolo[1,5-a]pyrimidine-3-carboxamide]		< 0.1
